The term melting point denotes the temperature, or range, at which the solid turns liquid. For `CCC(CC)Nc1cc(C)nn2c(-c3ccc(Cl)cc3Cl)c(C)cc12` [Example 1, 7-(2,4-dichlorophenyl)-N-(1-ethylpropyl)-2,6-dimethylpyrrolo[1,2-b]pyridazin-4-amine], the melting point was in the range of 115 to 118 °C.

Take `COCC(COC)Nc1cc(C)nn2c(-c3ccc(Cl)cc3Cl)c(C)cc12` [Example 2, 7-(2,4-dichlorophenyl)-N-[2-methoxy-1-(methoxymethyl)ethyl]-2,6-dimethylpyrrolo[1,2-b]pyridazin-4-amine]: the melting point lay in the range of 154 to 155 °C.
